Results as given in patent publication US20240342292A1, “Compounds for the Degradation of EGFR Kinase” (BeiGene Switzerland GmbH, priority 2021, published 2024).

Legend:
Del19/T790M/C797S EGFR = assay: EGFR degradation HTRF assay in H1975-clone #28 (DTC) cells; type: cell-based; conditions: H1975 # 28 DTC (Del19/T790M/C797S), 16h treatment; for DC50: HTRF; for Dmax (%): maximum percentage of degradation
Outline: (§1)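 DC50 from a four-parameter fit of HTRF signal. H1975 mutant-EGFR clones with endogenous EGFR knocked out; 16 h treatment, 10 uM top, 5-fold × 8.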

L858R/T790M/C797S EGFR = target: T1, L858R/T790M/C797S EGFR (Homo sapiens, UniProt P00533, C797S/L858R/T790M); assay: EGFR degradation HTRF assay in H1975-clone #25 (LTC) cells; type: cell-based; conditions: 16h treatment; for DC50: H1975 # 25-LTC (L858R/T790M/C797S), HTRF; for Dmax: NCI-H1975, H1975 # 25-LTC (L858R/T790M/C797S), maximum percentage of degradation
T1 construct: expressed in transfected cells; host or cells: H1975 clone #25 (lentiviral over-expression, endogenous EGFR knocked out by sgRNA)
Outline: as §1

T1 sequence (P00533 25-1210 T790M/C797S/L858R): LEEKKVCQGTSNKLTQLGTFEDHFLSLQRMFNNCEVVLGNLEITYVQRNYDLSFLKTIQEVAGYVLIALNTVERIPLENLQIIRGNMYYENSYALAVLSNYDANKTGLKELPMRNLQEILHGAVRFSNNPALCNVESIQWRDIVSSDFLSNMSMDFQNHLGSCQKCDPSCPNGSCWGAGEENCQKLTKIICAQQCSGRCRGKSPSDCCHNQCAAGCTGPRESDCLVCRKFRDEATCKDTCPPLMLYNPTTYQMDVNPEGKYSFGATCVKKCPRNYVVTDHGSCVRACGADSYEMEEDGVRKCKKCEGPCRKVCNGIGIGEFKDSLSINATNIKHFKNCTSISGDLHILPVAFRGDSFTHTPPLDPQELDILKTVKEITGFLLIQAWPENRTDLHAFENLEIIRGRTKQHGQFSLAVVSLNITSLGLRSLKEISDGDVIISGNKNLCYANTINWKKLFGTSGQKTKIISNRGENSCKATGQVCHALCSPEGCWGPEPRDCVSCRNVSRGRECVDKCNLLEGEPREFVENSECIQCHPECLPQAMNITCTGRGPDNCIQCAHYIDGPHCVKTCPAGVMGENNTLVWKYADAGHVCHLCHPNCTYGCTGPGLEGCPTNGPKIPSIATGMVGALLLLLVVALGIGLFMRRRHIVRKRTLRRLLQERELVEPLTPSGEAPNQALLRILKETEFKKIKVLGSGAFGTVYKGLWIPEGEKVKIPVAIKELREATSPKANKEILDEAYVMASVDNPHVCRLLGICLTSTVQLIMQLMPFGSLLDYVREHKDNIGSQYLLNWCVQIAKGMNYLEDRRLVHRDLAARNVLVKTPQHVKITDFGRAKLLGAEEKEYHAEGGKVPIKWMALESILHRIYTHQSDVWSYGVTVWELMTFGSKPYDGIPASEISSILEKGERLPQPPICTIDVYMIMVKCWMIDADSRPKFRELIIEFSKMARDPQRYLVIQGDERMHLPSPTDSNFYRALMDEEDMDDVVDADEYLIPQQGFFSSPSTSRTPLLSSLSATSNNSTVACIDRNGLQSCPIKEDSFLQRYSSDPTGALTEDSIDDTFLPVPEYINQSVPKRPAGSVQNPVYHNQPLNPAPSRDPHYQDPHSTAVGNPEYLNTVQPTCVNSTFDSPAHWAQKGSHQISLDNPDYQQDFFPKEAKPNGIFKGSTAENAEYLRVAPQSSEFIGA

DC50 (Del19/T790M/C797S EGFR) [pM]	DC50 (L858R/T790M/C797S EGFR) [pM]	Dmax (L858R/T790M/C797S EGFR) [%]	SMILES	Dmax (%) (Del19/T790M/C797S EGFR)
751	841	87.1	Cc1cc2cc(n1)-c1cnn(C)c1OCCC[C@@H](C)CN1/C(=N/C2=O)Nc2ccc(C(=O)N(C)[C@H]3CCN(C4CN(c5cc(F)c([C@H]6CCC(=O)NC6=O)c(F)c5)C4)CC3(F)F)cc21 [Example 359, (R,E)-N—((S)-1-(1-(4-((R)-2,6-dioxopiperidin-3-yl)-3,5-difluorophenyl)azetidin-3-yl)-3,3-difluoropiperidin-4-yl)-N,1^1,2^6,7-tetramethyl-3-oxo-5^2,5^3-dihydro-1^1H,5^1H-11-oxa-4-aza-5(2,1)-benzo[d]imidazola-2(2,4)-pyridina-1(4,5)-pyrazolacycloundecaphane-5^6-carboxamide]	83.57
614	643	87.5	COC[C@H]1CN(C(=O)C2CCN(c3ccc4c(c3)N3C[C@H](C)CCCOc5c(cnn5C)-c5cc(cc(C)n5)C(=O)/N=C/3N4)CC2)CCN1c1cc(F)c([C@H]2CCC(=O)NC2=O)c(F)c1 [Example 363, (R)-3-(2,6-difluoro-4-((R)-2-(methoxymethyl)-4-(1-((R,E)-1^1,2^6,7-trimethyl-3-oxo-5^2,5^3-dihydro-1^1H,5^1H-11-oxa-4-aza-5(2,1)-benzo[d]imidazola-2(2,4)-pyridina-1(4,5)-pyrazolacycloundecaphane-5^6-yl)piperidine-4-carbonyl)piperazin-1-yl)phenyl)piperidine-2,6-Dione]	78.54
633	1120	86.4	Cc1cc2cc(n1)-c1cnn(C)c1OCCC[C@@H](C)CN1/C(=N/C2=O)Nc2ccc(N3CCC(C(=O)N4CCC(Oc5cc(F)c([C@H]6CCC(=O)NC6=O)c(F)c5)CC4)CC3)cc21 [Example 364, (R)-3-(2,6-difluoro-4-((1-(1-((R,E)-1^1,2^6,7-trimethyl-3-oxo-5^2,53-dihydro-1^1H,5^1H-11-oxa-4-aza-5(2,1)-benzo[d]imidazola-2(2,4)-pyridina-1(4,5)-pyrazolacycloundecaphane-5^6-yl)piperidine-4-carbonyl)piperidin-4-yl)oxy)phenyl)piperidine-2,6-dione]	75.27
625	878	91.1	Cc1cc2cc(n1)-c1cnn(C)c1OCCC[C@@H](C)CN1/C(=N/C2=O)Nc2ccc(N(C)C(=O)C3CCN(CCc4cc(F)c([C@H]5CCC(=O)NC5=O)c(F)c4)CC3)cc21 [Example 365, 1-(4-((R)-2,6-dioxopiperidin-3-yl)-3,5-difluorophenethyl)-N-methyl-N—((R,E)-1^1,2^6,7-trimethyl-3-oxo-5^2,5^3-dihydro-1^1H,5^1H-11-oxa-4-aza-5(2,1)-benzo[d]imidazola-2(2,4)-pyridina-(4,5)-pyrazolacycloundecaphane-5^6-yl)piperidine-4-carboxamide]	80.74
539	372	91.8	Cc1cc2cc(n1)-c1cnn(C)c1OCCC[C@@H](C)CN1/C(=N/C2=O)Nc2ccc(N3CCN(CCc4cc(F)c([C@H]5CCC(=O)NC5=O)c(F)c4)CC3=O)cc21 [Example 366, (R)-3-(2,6-difluoro-4-(2-(3-oxo-4-((R,E)-1^1,2^6,7-trimethyl-3-oxo-5^2,5^3-dihydro-1^1H,5^1H-11-oxa-4-aza-5(2,1)-benzo[d]imidazola-2(2,4)-pyridina-1(4,5)-pyrazolacycloundecaphane-5^6-yl)piperazin-1-yl)ethyl)phenyl)piperidine-2,6-dione]	84.74
623	1310	87.8	Cc1cc2cc(n1)-c1cnn(C)c1OCC[C@@H]1C[C@H]1CN1/C(=N/C2=O)Nc2ccc(N3CCC(C(=O)N4CCN(c5cc(F)c([C@H]6CCC(=O)NC6=O)c(F)c5)CC4)CC3)cc21 [Example 367, (R)-3-(4-(4-(1-((71R,72S,E)-1^1,2^6-dimethyl-3-oxo-5^2,5^3-dihydro-1^1H,5^1H-10-oxa-4-aza-5(2,1)-benzo[d]imidazola-2(2,4)-pyridina-1(4,5)-pyrazola-7(1,2)-cyclopropanacyclodecaphane-5^6-yl)piperidine-4-carbonyl)piperazin-1-yl)-2,6-difluorophenyl)piperidine-2,6-dione]	80.77
656	470	84.9	Cc1cc2cc(n1)-c1cnn(C)c1OCCC[C@@H](C)CN1/C(=N/C2=O)Nc2ccc(N3CCN(C4CCN(c5ccc(C6CCC(=O)NC6=O)nc5)CC4)CC3)cc21 (stereo partly drawn) [Example 373, 3-(5-(4-(4-((R,E)-1^1,2^6,7-trimethyl-3-oxo-5^2,5^1-dihydro-1^1H,5^1H-11-oxa-4-aza-5(2,1)-benzo[d]imidazola-2(2,4)-pyridina-1(4,5)-pyrazolacycloundecaphane-5^6-yl)piperazin-1-yl)piperidin-1-yl)pyridin-2-yl)piperidine-2,6-dione]	69.22
583	591	92.7	Cc1cc2cc(n1)-c1cnn(C)c1OCCC[C@@H](C)CN1/C(=N/C2=O)Nc2ccc(N3CCN(C4CCN(c5cc(F)c([C@H]6CCC(=O)NC6=O)c(F)c5)CC4)CC3=O)cc21 [Example 374, (R)-3-(2,6-difluoro-4-(4-(3-oxo-4-((R,E)-1^1,2^6,7-trimethyl-3-oxo-5^2,5^3-dihydro-1^1H,5^1H-11-oxa-4-aza-5(2,1)-benzo[d]imidazola-2(2,4)-pyridina-1(4,5)-pyrazolacycloundecaphane-5^6-yl)piperazin-1-yl)piperidin-1-yl)phenyl)piperidine-2,6-dione]	81.48
682	503	80.9	Cc1cc2cc(n1)-c1cnn(C)c1OCCC[C@@H](C)CN1/C(=N/C2=O)Nc2ccc(C(=O)N(C)C3CCN(CCc4cccc5c4C(C)(C)C(=O)N5[C@H]4CCC(=O)NC4=O)CC3)cc21 [Example 379, (R,E)-N-(1-(2-(1-((S)-2,6-dioxopiperidin-3-yl)-3,3-dimethyl-2-oxoindolin-4-yl)ethyl)piperidin-4-yl)-N,1^1,2^6,7-tetramethyl-3-oxo-5^2,5^3-dihydro-1^1H,5^1H-11-oxa-4-aza-5(2,1)-benzo[d]imidazola-2(2,4)-pyridina-1(4,5)-pyrazolacycloundecaphane-5^6-carboxamide]	67.89
2240	3350	80.2	Cc1cc2cc(n1)-c1cnn(C)c1OCCC[C@@H](C)CN1/C(=N/C2=O)Nc2ccc(N3C[C@H](C)N(C4CCN(c5cc(F)c([C@H]6CCC(=O)NC6=O)c(F)c5)CC4)C[C@H]3C)cc21 [Example 380, (R)-3-(4-(4-((2S,5R)-2,5-dimethyl-4-((R,E)-1^1,2^6,7-trimethyl-3-oxo-5^2,5^1-dihydro-1^1H,5^1H-11-oxa-4-aza-5(2,1)-benzo[d]imidazola-2(2,4)-pyridina-1(4,5)-pyrazolacycloundecaphane-5^6-yl)piperazin-1-yl)piperidin-1-yl)-2,6-difluorophenyl)piperidine-2,6-dione]	76.83
